Measurements taken from patent publication US11058903B2, “Methods for identifying and treating cachexia or pre-cachexia using an inhibitor of rage” (THE BROAD INSTITUTE, INC., priority 2013, dated 2021).
“Also recorded” adds a separate entry of the source.

Assays:
[1] = test system: pancreatic cancer cells; test: CellTiter Glo cell number assay, chemotherapy with or without soluble RAGE; assay type: cell-based; settings: treated for 5 days; Gemcitibine alone or with increasing doses of recombinant human soluble RAGE
[2] = test system: HSkM cells; test: In-Cell Western of myosin heavy chain (MyoHC) content in muscle cells exposed to CI-CM; assay type: cell-based, human
Description: FIG. 21 is a chart showing the quantification of myosin heavy chain (MyoHC) content determined by In-Cell Western analysis of in vitro HSkM cells treated with media conditioned by cachexia-inducing MkN1 and G361 cells and in vitro HSkM cells treated with media conditioned by non-cachexia-inducing 293 cells, either in the presence or absence of a MEK/ERK inhibitor PD184352 (PD184).
FIG. 22 is a chart showing the myosin heavy chain (MyoHC) content determined by In-Cell Western analysis of in vitro HSkM cells pre-treated (for 2 days) or not pre-treated with cachexia-inducing conditioned media (“CI-CM”), either in the presence or absence of an ERK1/2 inhibitor, SCH772984 (SCH2984).
FIGS. 23A and 23B are a series of charts showing the dose response of myosin heavy chain (MyoHC) content determined by In-Cell Western analysis of muscle cells treated with a RAGE Anti-Peptide (FIG. 23A) or an anti-RAGE mAb (FIG. 23B), either in the absence or presence of cachexia-inducing conditioned media (CI-CM).
FIG. 24 is a chart showing the dose response of myosin heavy chain (MyoHC) content determined by In-Cell Western analysis of muscle cells treated with a recombinant soluble RAGE, either in the presence of cachexia-inducing conditioned media (CI-CM) or non-cachexia-inducing conditioned media (NCI-CM). […]

[3] = test system: MEK/ERK; test: Western blot of phosphorylated MEK and ERK in muscle cells exposed to cachexia-inducing conditioned media (CI-CM); assay type: cell-based, human; settings: FIG. 20; for CI-CM stimulated phosphorylation of ERK: human muscle cells stimulated by CI-CM; for MEK/ERK activation (pMEK, pERK) by cachexia stimuli in CI-CM: muscle cells exposed to CI-CM, relative to NCI-CM, Western blot
Description: FIG. 20 is an image of a Western blot showing phosphorylated MEK (pMEK) and phosphorylated ERK (pERK) in muscle cells exposed to cachexia-inducing conditioned media (CI-CM), either in the absence or presence of the MEK/ERK inhibitors, PD184352 (PD184) and trametinib (Tram). Also shown are pMEK and pERK levels in muscle cells exposed to non-cachexia-inducing conditioned media (NCI-CM).
Inhibition of MEK by exposure to PD1 84352 or trametinib blocked CI-CM stimulated phosphorylation of ERK (FIG. 20).

[4] = test system: differentiated primary adipocytes; test: Lipid loss in adipocytes treated with CI-CM (bodipy/DAPI staining); assay type: cell-based, human; settings: 5 days CI-CM, FIG. 42
Description: FIG. 42 includes six panels showing adipocytes in cultured stained with bodipy to highlight lipids and DAPI to stain nuclei. Lipids are lost in cells treated for 5 days with cachexia (CXA) inducing conditioned media (CM). Lipid loss is inhibited by inhibiting RAGE signaling.
Lipid loss from differentiated primary adipocytes occurs within 5 days of contact with cachexia-inducing conditioned media (FIG. 42A). This loss is inhibited in adipocytes treated with Rage inhibitors, anti-RAGE monoclonal antibody AF1145 or Tramatenib. This phenotypic response is also seen in melanoma cells.
The effects of treatment with RAGE blocking antibodies and Tremetinib are shown (FIG. 42).

[5] = test system: human muscle cells; test: Testing of secreted proteins/cytokines for induction of the L1000 cachexia signature in muscle cells; assay type: cell-based; settings: in vitro systems described
Experimental: FIG. 32 are graphs showing cytokine abundance relative to cachexia in patient plasma and conditioned media. Human cytokines (300 on cytokine array) in muscle were tested. None of the expected “usual suspect” cytokines induced the cachectic phenotype or gene expression signature in human muscle cells. IL6, INHBA, IFNG, IL10, IL1, TNFa was assayed in patient plasma and conditioned media.
FIG. 33 is a graph showing testing of human cytokines for induction of cancer cachexia signature. For some the enrichment score was weak (e.g., 1.25).
A faithful read-out of the cachectic phenotype was also developed using a novel high-throughput, low-cost gene expression profiling method (L1000) (FIG. 5). L1000 involves the profiling of 1000 human transcripts from which the remainder of the transcriptome can be computationally inferred. This method, validated in over 1 million samples, allowed for profiling of small numbers of cells grown in 384-well plates.
Therefore, it is likely that the major cachexia-inducing factors were yet to be discovered.

Nc1ccn([C@@H]2O[C@H](CO)[C@@H](O)C2(F)F)c(=O)n1 [Gemcitibine]
pancreatic cancer cell numbers (CellTiter Glo) [1]: reduction

O=C(NOCC1CC1)c1ccc(F)c(F)c1Nc1ccc(I)cc1Cl [PD184352]
cachectic induced loss of myosin heavy chain (MyoHC) protein ([2]; HSkM cells with media conditioned by MkN1 and G361 cells, low-dose, dose curve, FIG. 21): blocks loss of MyoHC; also recorded: block | CI-CM stimulated phosphorylation of ERK [3]: blocked | MEK/ERK activation (pMEK, pERK) by cachexia stimuli in CI-CM [3]: inhibited

O=C(Nc1ccc2[nH]nc(-c3ccncc3)c2c1)C1CCN(CC(=O)N2CCN(c3ccc(-c4ncccn4)cc3)CC2)C1 (stereo not drawn) [SCH772984]
reversal of cachectic induced loss of myosin heavy chain (MyoHC) ([2]; HSkM cells pre-treated (2 days) or not with CI-CM, dose response, FIG. 22): can reverse the MyoHC loss at a certain dose, beyond which the benefit is lost; also recorded: (partially) reverse; also recorded: reduced in a dose-dependent manner

CC(=O)Nc1cccc(-n2c(=O)n(C3CC3)c(=O)c3c(Nc4ccc(I)cc4F)n(C)c(=O)c(C)c32)c1 [trametinib, N-[3-[3-Cyclopropyl-5-[(2-fluoro-4-iodophenyl)amino]-3,4,6,7-tetrahydro-6,8-dimethyl-2,4,7-trioxopyrido[4,3-d]pyrimidin-1(2H)-yl]phenyl]acetamide]
lipid loss from adipocytes caused by cachexia-inducing conditioned media ([4]; listed as Tramatenib): inhibited | lipid loss from adipocytes caused by cachexia-inducing conditioned media ([4]; listed as Tremetinib): block the loss of lipid | CI-CM stimulated phosphorylation of ERK [3]: blocked | MEK/ERK activation (pMEK, pERK) by cachexia stimuli in CI-CM [3]: inhibited

Activin
induction of the cachexia signature [5]: none of them strongly induced the cachexia signature

IFNγ: secreted protein tested as candidate cachexia-inducing protein
induction of the cachexia signature [5]: none of them strongly induced the cachexia signature

IL-6: secreted protein tested as candidate cachexia-inducing protein
induction of the cachexia signature [5]: none of them strongly induced the cachexia signature

Myostatin: secreted protein tested as candidate cachexia-inducing protein
induction of the cachexia signature [5]: none of them strongly induced the cachexia signature

TNFα
induction of the cachexia signature [5]: none of them strongly induced the cachexia signature

B1: IL-10: secreted protein tested as candidate cachexia-inducing protein (protein, UniProt P22301 19-178, looked up)
Interleukin-10: SPGQGTQSENSCTHFPGNLPNMLRDLRDAFSRVKTFFQMKDQLDNLLLKESLLEDFKGYLGCQALSEMIQFYLEEVMPQAENQDPDIKAHVNSLGENLKTLRLRLRRCHRFLPCENKSKAVEQVKNAFNKLQEKGIYKAMSEFDIFINYIEAYMTMKIRN
induction of the cachexia signature [5]: none of them strongly induced the cachexia signature
